In PMC9257893 (The Onderstepoort Journal of Veterinary Research, 2022):
Where “and” joins values, the source holds several entries; their conditions need not be identical. Identical values can stand only once. Like-named read-outs stand apart in the source and are kept apart here.

Columns and labels:
[1] = Diclofenac plasma pharmacokinetics in chickens after IV dosing (HPLC, non-compartmental); settings: for AUC(0-inf): AUCinf; for AUC(0-t): AUClast
Description: Birds still alive after 15 days were terminated by sedation and carbon dioxide asphyxiation.
Scheduled and unscheduled deaths were submitted to the University of Pretoria Paraclinical Department, section of veterinary pathology, for full gross and histological evaluation. Where needed, samples were collected in 10% buffered formalin, sectioned and stained via haematoxylin & eosin (H&E) technique and subjected to histopathologic examination.
Samples were analysed at the University of Pretoria, Veterinary, Paraclinical Department, toxicology and pharmacology laboratory. […] In short, 200 μL of plasma was placed in a 2-mL tube, followed sequentially by 400 μL of diethyl ether and 400 μL of potassium dihydrogen phosphate (0.3 M and pH 3.5). […] The separated organic phase was dried under nitrogen flow at 50 °C until dry.
For analysis, 30 μL was injected at […], and detection at 275 nm.
Concentration-time data generated following HPLC analysis was dose equalised to 1 mg/kg and evaluated by non-compartmental modelling (Kinetica 5.1, Thermo Scientific). The pharmacokinetic parameters maximum plasma concentration (Cmax) and time to maximum plasma concentration (Tmax) were read off the curve.
Area under the plasma curve extrapolated to infinity was calculated as: • AUCinf=AUClast+AUCextra, [Eqn 3] where AUCextra=Clast/β,Clast
is the last measured concentration and β is the terminal elimination portion of the curve gradient, on a natural logarithmic scale.
The half-life of elimination (T1/2) was calculated as: • T1/2=Ln 2/β. [Eqn 4]
Whole plasma clearance (Cl) was calculated as: • Cl=Dose/AUClast. [Eqn 5]
Volume of distribution (Vd) was calculated as: • Vd=Dose/CP0, [Eqn 6] where CP0 was the calculated concentration at time 0.
The mean residence time (MRT) was calculated as: • MRT=Dose Cp0/β. [Eqn 7]

[2] = Gyps vultures; cited from earlier work
[3] = pigeon; cited from earlier work
[4] = parameters: method as in Naidoo et al. [2007]; settings: Cape Griffon Vulture; ref Naidoo et al. [2007]; cited from earlier work
[5] = parameters: method as in Naidoo et al. [2007]; settings: African White-backed Vulture; ref Naidoo et al. [2007]; cited from earlier work
[6] = in vivo, iv, 1 mg/kg, control group (diclofenac IV alone), birds alive, GM, dose corrected to 1 mg/kg
[7] = in vivo, iv, 1 mg/kg, control group (diclofenac IV alone), birds dead, GM, dose corrected to 1 mg/kg
[8] = in vivo, iv, test group (fluconazole + diclofenac IV), birds alive, GM, dose corrected to 1 mg/kg
[9] = test group (fluconazole + diclofenac IV), birds alive, GM, dose corrected to 1 mg/kg
[10] = test group (fluconazole + diclofenac IV), birds dead, GM, dose corrected to 1 mg/kg

## O=C(O)Cc1ccccc1Nc1c(Cl)cccc1Cl [diclofenac, diclofenac sodium]
[1]; chicken (Gallus gallus domesticus), in vivo, iv, mean Cmax, mean value stated in text, chickens, IV diclofenac
  Cmax: 510 ng/mL
[1]; chicken (Gallus gallus domesticus), in vivo, iv, mean Tmax, mean value stated in text, chickens, IV diclofenac
  Tmax: 0.38 h
[1]; control group (diclofenac IV alone), birds alive, GM
  Lz (terminal elimination phase rate constant): 0.88 h⁻¹
[1]; control group (diclofenac IV alone), birds alive, GM, dose corrected to 1 mg/kg
  AUMClast: 0.35 μg/mL*(h)^2
[1]; control group (diclofenac IV alone), birds dead, GM
  Lz (terminal elimination phase rate constant): 0.34 h⁻¹
[1]; control group (diclofenac IV alone), birds dead, GM, dose corrected to 1 mg/kg
  AUMClast: 0.27 μg/mL*(h)^2
[1]; control group birds receiving the two highest doses
  T1/2 of individual birds: 7.01 h and 2.75 h
[1]; [6]
  AUC(0-inf): 570 ng·h/mL
  AUC(0-t): 460 ng·h/mL
[1]; [7]
  AUC(0-inf): 760 ng·h/mL
  AUC(0-t): 310 ng·h/mL
[1]; in vivo, iv, 1 mg/kg, Cmax, control group (diclofenac IV alone), birds alive, GM, dose corrected to 1 mg/kg
  Cmax: 520 ng/mL
[1]; in vivo, iv, 1 mg/kg, Cmax, control group (diclofenac IV alone), birds dead, GM, dose corrected to 1 mg/kg
  Cmax: 240 ng/mL
[1]; [8]
  AUC(0-inf): 550 ng·h/mL
  AUC(0-t): 420 ng·h/mL
[1]; in vivo, iv, test group (fluconazole + diclofenac IV), birds dead, GM, dose corrected to 1 mg/kg
  AUC(0-inf): 1130 ng·h/mL
[1]; in vivo, iv, geometric mean, control group, all birds
  AUC(0-t): 400 ng·h/mL
[1]; in vivo, iv, geometric mean, test group (CYP inhibitor), all birds
  AUC(0-t): 500 ng·h/mL
[1]; in vivo, iv, Cl, control group (diclofenac IV alone), birds alive, GM
  clearance: 29 mL/min/kg
[1]; in vivo, iv, Cl, control group (diclofenac IV alone), birds dead, GM
  clearance: 22 mL/min/kg
[1]; in vivo, iv, Cl, test group (fluconazole + diclofenac IV), birds alive, GM
  clearance: 30.5 mL/min/kg
[1]; in vivo, iv, Cl, test group (fluconazole + diclofenac IV), birds dead, GM
  clearance: 14.7 mL/min/kg
[1]; in vivo, iv, Cmax, geometric mean, control group, all birds
  Cmax: 410 ng/mL
[1]; in vivo, iv, Cmax, geometric mean, test group (CYP inhibitor), all birds
  Cmax: 610 ng/mL
[1]; in vivo, iv, Cmax, test group (fluconazole + diclofenac IV), birds dead, GM, dose corrected to 1 mg/kg
  Cmax: 1240 ng/mL
[1]; in vivo, iv, control group (diclofenac IV alone), birds alive, GM
  MRT: 1.17 h
[1]; in vivo, iv, control group (diclofenac IV alone), birds dead, GM
  MRT: 3.14 h
[1]; in vivo, iv, test group (fluconazole + diclofenac IV), birds alive, GM
  MRT: 1.34 h
[1]; in vivo, iv, test group (fluconazole + diclofenac IV), birds dead, GM
  MRT: 1.33 h
[1]; in vivo, iv, T1/2, control group (diclofenac IV alone), birds alive, GM
  half-life: 0.79 h
[1]; in vivo, iv, T1/2, test group (fluconazole + diclofenac IV), birds alive, GM
  half-life: 0.85 h
[1]; in vivo, iv, T1/2, test group (fluconazole + diclofenac IV), birds dead, GM
  half-life: 0.96 h
[1]; in vivo, iv, Tmax, control group (diclofenac IV alone), birds alive, GM
  Tmax: 0.4 h
[1]; in vivo, iv, Tmax, control group (diclofenac IV alone), birds dead, GM
  Tmax: 0.4 h
[1]; in vivo, iv, Tmax, test group (fluconazole + diclofenac IV), birds alive, GM
  Tmax: 0.35 h
[1]; in vivo, iv, Tmax, test group (fluconazole + diclofenac IV), birds dead, GM
  Tmax: 0.25 h
[1]; in vivo, iv, Vss, control group (diclofenac IV alone), birds alive, GM
  Vd: 2.04 L/kg
[1]; in vivo, iv, Vss, control group (diclofenac IV alone), birds dead, GM
  Vd: 4.16 L/kg
[1]; in vivo, iv, Vss, test group (fluconazole + diclofenac IV), birds alive, GM
  Vd: 2.44 L/kg
[1]; in vivo, iv, Vss, test group (fluconazole + diclofenac IV), birds dead, GM
  Vd: 1.17 L/kg
[1]; in vivo, iv, Vz, control group (diclofenac IV alone), birds alive, GM
  Vd: 1.98 L/kg
[1]; in vivo, iv, Vz, control group (diclofenac IV alone), birds dead, GM
  Vd: 3.88 L/kg
[1]; in vivo, iv, Vz, test group (fluconazole + diclofenac IV), birds alive, GM
  Vd: 2.24 L/kg
[1]; in vivo, iv, Vz, test group (fluconazole + diclofenac IV), birds dead, GM
  Vd: 1.23 L/kg
[1]; in vivo, iv, clearance, geometric mean, control group, all birds
  clearance: 26.5 mL/min/kg
[1]; in vivo, iv, clearance, geometric mean, test group (CYP inhibitor), all birds
  clearance: 25.3 mL/min/kg
[1]; test group (fluconazole + diclofenac IV), birds alive, GM
  Lz (terminal elimination phase rate constant): 0.82 h⁻¹
[1]; [9]
  AUMClast: 0.34 μg/mL*(h)^2
  Cmax: 480 ng/mL
[1]; test group (fluconazole + diclofenac IV), birds dead, GM
  Lz (terminal elimination phase rate constant): 0.72 h⁻¹
[1]; [10]
  AUClast: 870 ng·h/mL
  AUMClast: 0.63 μg/mL*(h)^2
[2]
  T1/2: > 7 h
[3]
  T1/2: < 7 h
[4]
  MRT: 15.11 h
  T1/2: 12.24 h
[5]
  MRT: 26.10 h
  T1/2: 16.78 h
